Molecules are shown by their SMILES.

The subject of one data set is RD cells. The experiment in a line: Cytotoxicity assay (CellTiter-Glo 2.0) on RD cells. Type of data set: cell-based, Human. Conditions: for IC50: Homo sapiens. As to the method: (§1) Cytotoxicity assays consist in treating cells with compounds and assessing remaining viability after a defined incubation time, depending on the cell line. CellTiter-Glo® 2.0 reagent allows viability measurement by quantification of ATP present, which is an indicator of metabolically active cells.
(§2) The cancer cell lines were cultivated in their respective growth medium (see tables 6a and 6b). On day 0 of the cytotoxicity assay, the cells were harvested and seeded into a 384-well plate at a defined density in their respective growth medium (see tables 6a and 6b). Compounds to be tested were then added onto the cells and incubated for a defined duration (see tables 6a and 6b). Following incubation, CellTiter-Glo® 2.0 reagent (cat.no. G9241 from Promega) was added into the wells (vol/vol, according to the manufacturer's recommendations), plates were gently shaken and incubated for 10 minutes in the dark at room temperature. Bioluminescence was then measured with a multimode plate reader (Victor Nivo from Perkin Elmer), and cell viability and relative IC50 were determined. Table 6a: Cancer cell characteristics, culture and cytotoxic assay conditions

Another data set deals with 4T1 cells. As to the kind of experiment: Cytotoxicity assay (CellTiter-Glo 2.0) on 4T1 cells. Type of data set: cell-based, Mouse. As to conditions: incubation 2 days; for IC50: Mus musculus, 48 h. Here is the method: as §1, §2
The next data set concerns MDA-MB-231 cells. As to the kind of experiment: Cytotoxicity assay (CellTiter-Glo 2.0) on MDA-MB-231 cells. Type of data set: cell-based, Human. Conditions: incubation 3 days; for IC50: Homo sapiens, 72 h. As to the method: as §1, §2
On the technique in general: Cellular ATP, detected with luciferase, serves as a proxy for viable cell number.

The next data set deals with EoL-1 cells. The experiment in a line: Cytotoxicity assay (CellTiter-Glo 2.0) on EoL-1 cells. Type of data set: cell-based, Human. Conditions: incubation 1 day; for IC50: Homo sapiens, EOL1, 24 h. As to the method: as §1, §2
The test system of a further data set is HUVECs. The experiment in a line: Tube formation assay (anti-angiogenic activity). Conditions: incubation 16 to 18 hours; for IC50: Homo sapiens, HUVEC. Type of data set: cell-based, human. The text has this: Angiogenesis is a phenomenon that includes different processes, such as endothelial cell proliferation, migration and differentiation that lead to the formation of new blood vessels. Tube formation assay is a standard in vitro test to assess angiogenesis: briefly, human Umbilical Vein Endothelial cells (hereafter "HUVECs") cultivated on a gelled basement matrix spontaneously proliferate, migrate and differentiate to form tube-like structures, that appear elongated and that connect to each other to form a network.
HUVECs were cultivated in Endothelial Cell Growth Medium (cat.no. C-22010 from Promocell) supplemented with 1% PenStrep (hereafter "HUVEC medium"). On day 0, HUVECs were harvested and transferred into a 384-well plate precoated with 10 µl/well of Cultrex UltiMatrix Reduced Growth factor basement membrane (cat.no. BME001-10 from BioTechne), according to the manufacturer's instructions, at a density of 5000 cells/well in HUVEC medium. Compounds to be tested were then added onto the cells and incubated for 16 to 18 hours at 37°C. After this incubation period, the cells were stained with calcein-AM (cat.no. 10462052 from Fisher Scientific) and pictures were acquired using a confocal fluorescent microscope (IXM from Molecular Devices). Tube formation was measured with MetaXpress® Software.

On to `Cc1ccc(-n2nc(C(C)(C)C)cc2NC(=O)Nc2ccc(Oc3ccnc4c3OCC(=O)N4)cc2C(F)(F)F)cc1` [Compound 011, 1-[5-tert-butyl-2-(p-tolyl)pyrazol-3-yl]-3-[4-[(3-oxo-4H-pyrido[3,2-b][1,4]oxazin-8-yl)oxy]-2-(trifluoromethyl)phenyl]urea], for which the Cytotoxicity result in the data set on RD cells (2 day-treatment) was “+ (20 % ≤ cytotoxicity < 50%)”; with RD cells (4 day-treatment), “+ (20 % ≤ cytotoxicity < 50%)”; in the data set with 4T1 cells it was “+++ (cytotoxicity ≥ 85%)”; in the data set on MDA-MB-231 cells it was “++ (50% ≤ cytotoxicity < 85%)”; in the data set with EoL-1 cells it was “++ (50% ≤ cytotoxicity < 85%)”. Besides, the 50% inhibitory concentration (IC50) is 5000 to 10000 nM in the data set on RD cells (48 h, 2 day-treatment); at least 10000 nM with RD cells (96 h, 4 day-treatment); 1000 to 5000 nM in the data set on 4T1 cells; 1000 to 5000 nM with MDA-MB-231 cells; 10 to 100 nM in the data set with EoL-1 cells; 100 to 500 nM with HUVECs. Moreover, the Angiogenesis inhibition entry with HUVECs is reported as “+++ (angiogenesis inhibition ≥ 80%)”.
Consider `CN(C)Cc1ccc(-n2nc(C(C)(C)C)cc2NC(=O)Nc2ccc(Oc3ccnc4c3CCC(=O)N4)cc2C(F)(F)F)cc1` [Compound 034, 1-[5-tert-butyl-2-[4-[(dimethylamino)methyl]phenyl]pyrazol-3-yl]-3-[4-[(7-oxo-6,8-dihydro-5H-1,8-naphthyridin-4-yl)oxy]-2-(trifluoromethyl)phenyl]urea], for which the Cytotoxicity entry in the data set with RD cells (2 day-treatment) is reported as “+++ (cytotoxicity ≥ 85%)”; in the data set on RD cells (4 day-treatment) it was “+++ (cytotoxicity ≥ 85%)”; with 4T1 cells it was “+++ (cytotoxicity ≥ 85%)”; in the data set on MDA-MB-231 cells, “+++ (cytotoxicity ≥ 85%)”; with EoL-1 cells, “++ (50% ≤ cytotoxicity < 85%)”. For the same compound, the IC50 was 1000 to 5000 nM in the data set on RD cells (48 h, 2 day-treatment); 1000 to 5000 nM in the data set with RD cells (96 h, 4 day-treatment); under 1000 nM with 4T1 cells; 1000 to 5000 nM in the data set with MDA-MB-231 cells; 1 to 10 nM with EoL-1 cells; under 100 nM in the data set with HUVECs. Further, the Angiogenesis inhibition result in the data set with HUVECs is on record as “+++ (angiogenesis inhibition ≥ 80%)”.
In the case of `CC(C)(C)c1cc(NC(=O)Nc2ccc(Oc3ccnc4c3CCC(=O)N4)cc2C(F)(F)F)n(-c2cccnc2)n1` [Compound 030, 1-[5-tert-butyl-2-(3-pyridyl)pyrazol-3-yl]-3-[4-[(7-oxo-6,8-dihydro-5H-1,8-naphthyridin-4-yl)oxy]-2-(trifluoromethyl)phenyl]urea], the Cytotoxicity result in the data set on RD cells (2 day-treatment) is given as “++ (50% ≤ cytotoxicity < 85%)”; in the data set with RD cells (4 day-treatment), “++ (50% ≤ cytotoxicity < 85%)”; with 4T1 cells, “+++ (cytotoxicity ≥ 85%)”; with MDA-MB-231 cells, “++ (50% ≤ cytotoxicity < 85%)”; with EoL-1 cells, “++ (50% ≤ cytotoxicity < 85%)”. In addition, the IC50 is 5000 to 10000 nM in the data set on RD cells (48 h, 2 day-treatment); 5000 to 10000 nM in the data set on RD cells (96 h, 4 day-treatment); 1000 to 5000 nM with 4T1 cells; 1000 to 5000 nM in the data set with MDA-MB-231 cells; 10 to 100 nM in the data set with EoL-1 cells; under 100 nM in the data set on HUVECs. The Angiogenesis inhibition result in the data set on HUVECs was “+++ (angiogenesis inhibition ≥ 80%)”.
Turning to `CSc1cc(Oc2ccnc3c2CCC(=O)N3)ccc1NC(=O)Nc1cc(C(C)(C)C)nn1-c1ccc(CN(C)C)cc1` [Compound 046, 1-[5-tert-butyl-2-[4-(dimethylaminomethyl)phenyl]pyrazol-3-yl]-3-[2-methylsulfanyl-4-[(7-oxo-6,8-dihydro-5H-1,8-naphthyridin-4-yl)oxy]phenyl]urea], the Cytotoxicity result in the data set with RD cells (2 day-treatment), with RD cells (4 day-treatment), with 4T1 cells, in the data set with MDA-MB-231 cells and with EoL-1 cells was “+++ (cytotoxicity ≥ 85%)” each time. Moreover, the IC50 was 5000 to 10000 nM with RD cells (48 h, 2 day-treatment); 1000 to 5000 nM with RD cells (96 h, 4 day-treatment); under 1000 nM in the data set with 4T1 cells; 1000 to 5000 nM with MDA-MB-231 cells; under 1 nM with EoL-1 cells; under 100 nM in the data set with HUVECs. In the data set on HUVECs, the Angiogenesis inhibition entry is reported as “+++ (angiogenesis inhibition ≥ 80%)”.
Turning to `CSc1cc(Oc2ccnc3c2CCC(=O)N3)ccc1NC(=O)Nc1cc(C(C)(C)C)nn1-c1ccccc1` [Compound 001, 1-(3-(tert-butyl)-1-phenyl-1H-pyrazol-5-yl)-3-(2-(methylthio)-4-((7-oxo-5,6,7,8-tetrahydro-1,8-naphthyridin-4-yl)oxy)phenyl)urea], the Cytotoxicity entry in the data set on RD cells (2 day-treatment) is on record as “+ (20 % ≤ cytotoxicity < 50%)”; in the data set on RD cells (4 day-treatment), “++ (50% ≤ cytotoxicity < 85%)”; in the data set on 4T1 cells it was “+++ (cytotoxicity ≥ 85%)”; in the data set on MDA-MB-231 cells, “++ (50% ≤ cytotoxicity < 85%)”; in the data set on EoL-1 cells, “+++ (cytotoxicity ≥ 85%)”. For the same compound, the IC50 in the data set with RD cells (48 h, 2 day-treatment) was 1000 to 5000 nM; in the data set on RD cells (96 h, 4 day-treatment), 1000 to 5000 nM; in the data set on 4T1 cells it was 1000 to 5000 nM; with MDA-MB-231 cells it was 1000 to 5000 nM; in the data set with EoL-1 cells, 10 to 100 nM; in the data set with HUVECs, under 100 nM. Moreover, the Angiogenesis inhibition result in the data set with HUVECs is “+++ (angiogenesis inhibition ≥ 80%)”.
On to `CSc1cc(Oc2ccnc3c2OCC(=O)N3)ccc1NC(=O)Nc1cc(C(C)(C)C)nn1C` [Compound 022, 1-(5-tert-butyl-2-methyl-pyrazol-3-yl)-3-[2-methylsulfanyl-4-[(3-oxo-4H-pyrido[3,2-b][1,4]oxazin-8-yl)oxy]phenyl]urea], for which the Cytotoxicity result with RD cells (2 day-treatment) was “++ (50% ≤ cytotoxicity < 85%)”; in the data set with RD cells (4 day-treatment), “++ (50% ≤ cytotoxicity < 85%)”; in the data set on 4T1 cells, “+++ (cytotoxicity ≥ 85%)”; with MDA-MB-231 cells, “++ (50% ≤ cytotoxicity < 85%)”; in the data set with EoL-1 cells, “+++ (cytotoxicity ≥ 85%)”. Further, the IC50 in the data set on RD cells (48 h, 2 day-treatment) is 1000 to 5000 nM; with RD cells (96 h, 4 day-treatment), 1000 to 5000 nM; with 4T1 cells, 1000 to 5000 nM; with MDA-MB-231 cells, 1000 to 5000 nM; in the data set on EoL-1 cells, under 1 nM; in the data set with HUVECs, under 100 nM. Moreover, the Angiogenesis inhibition result in the data set with HUVECs is given as “++ (80% > angiogenesis inhibition ≥ 50%)”.
Regarding `CC(C)(C)c1cc(NC(=O)Nc2ccc(Oc3ccnc4c3OCC(=O)N4)cc2C(F)(F)F)n(-c2cccc(F)c2)n1` [Compound 014, 1-[5-tert-butyl-2-(3-fluorophenyl)pyrazol-3-yl]-3-[4-[(3-oxo-4H-pyrido[3,2-b][1,4]oxazin-8-yl)oxy]-2-(trifluoromethyl)phenyl]urea], the Cytotoxicity entry in the data set with RD cells (2 day-treatment) was “+ (20 % ≤ cytotoxicity < 50%)”; in the data set on RD cells (4 day-treatment), “+ (20 % ≤ cytotoxicity < 50%)”; in the data set with 4T1 cells, “+++ (cytotoxicity ≥ 85%)”; in the data set with MDA-MB-231 cells, “+ (20 % ≤ cytotoxicity < 50%)”; in the data set on EoL-1 cells, “++ (50% ≤ cytotoxicity < 85%)”. In addition, the IC50 is 5000 to 10000 nM in the data set with RD cells (48 h, 2 day-treatment); at least 10000 nM with RD cells (96 h, 4 day-treatment); 1000 to 5000 nM in the data set with 4T1 cells; 1000 to 5000 nM in the data set on MDA-MB-231 cells; 10 to 100 nM in the data set with EoL-1 cells; 100 to 500 nM in the data set on HUVECs. Moreover, in the data set on HUVECs, the Angiogenesis inhibition entry is “+++ (angiogenesis inhibition ≥ 80%)”.
For `CSc1cc(Oc2ccnc3c2CCC(=O)N3)ccc1NC(=O)Nc1cc(C(C)(C)C)nn1-c1cccc(CN2CCOCC2)c1` [Compound 047, 1-[5-tert-butyl-2-[3-(morpholinomethyl)phenyl]pyrazol-3-yl]-3-[2-methylsulfanyl-4-[(7-oxo-6,8-dihydro-5H-1,8-naphthyridin-4-yl)oxy]phenyl]urea], the Cytotoxicity result with RD cells (2 day-treatment) was “++ (50% ≤ cytotoxicity < 85%)”; in the data set on RD cells (4 day-treatment), “++ (50% ≤ cytotoxicity < 85%)”; in the data set with 4T1 cells it was “+++ (cytotoxicity ≥ 85%)”; in the data set with MDA-MB-231 cells, “++ (50% ≤ cytotoxicity < 85%)”; in the data set on EoL-1 cells, “+++ (cytotoxicity ≥ 85%)”. Further, the IC50 with RD cells (48 h, 2 day-treatment) is 5000 to 10000 nM; in the data set with RD cells (96 h, 4 day-treatment) it was 1000 to 5000 nM; in the data set on 4T1 cells, under 1000 nM; with MDA-MB-231 cells, 1000 to 5000 nM; in the data set with EoL-1 cells it was 1 to 10 nM; in the data set on HUVECs, under 100 nM. In the data set with HUVECs, the Angiogenesis inhibition entry is on record as “+++ (angiogenesis inhibition ≥ 80%)”.

As usually defined, the IC50 is the midpoint of a concentration-inhibition curve.

The values above are taken from patent publication EP4289427A1, “DIHYDRO[1,8]NAPHTHYRIDIN-7-ONE AND PYRIDO[3,2-B][1,4]OXAZIN-3-ONE FOR USE IN TREATING CANCER, AND METASTASES IN PARTICULAR” (Anagenesis Biotechnologies, priority 2022, dated 2023).
